Test results taken from US20030119067A1, “PYK2 related products and methods” (Sugen, Inc., priority 1996, published 2003).

Columns and labels:
Type in all cases: cell-based, rat
[1] = tested on: PYK2/Src complex; experiment: Association of PYK2 with activated Src in PC12 cells (co-immunoprecipitation); details: LPA 2.5 mM or bradykinin 1 mM, 3 min, 37° C.
From the text: We examined the possibility of association between the two protein tyrosine kinases PYK2 and Src in response to LPA or bradykinin stimulation. Lysates from stimulated or unstimulated cells were subjected to immunoprecipitation with antibodies against Src followed by immunoblotting with antibodies against PYK2, against Src or anti-pY416src antibodies that specifically recognize activated Src. Liu et al., Oncogene 8:1119-1126 (1993).
(§1) PC12 cells were left untreated (−) or stimulated with LPA (2.5 mM) or bradykinin (1 mM) for 3 min at 37° C. Src was immunoprecipitated and immunoblotted with antibodies against Src, anti-pY416^src antibodies or antibodies against PYK2.

[2] = tested on: PYK2; experiment: Tyrosine phosphorylation of PYK2 in PC12 cells (immunoprecipitation, anti-phosphotyrosine immunoblot); details: PC12 cells, 37° C.
[3] = tested on: EGF receptor; experiment: Activation of EGF receptor in PC12 cells
From the text: (§2) Sadoshima & Izumo, EMBO J. 15:775-787 (1996); Wan et al., Nature 380:541-544 (1996). The EGF-receptor and erbB2 were also implicated in MAP kinase activation induced by LPA and other agonists of G-protein coupled receptors. Daub et al., Nature 379:557-564 (1996). We have tested whether LPA and bradykinin can activate Src and the EGF receptor in PC12 cells.

[4] = tested on: Src; experiment: Src kinase activity in PC12 cells; details: PC12 cells stimulated with LPA or bradykinin
Description: as §2, §1

Substance: lysophosphatidic acid [LPA]
- complex formation of PYK2 with activated Src [1]: forms a complex with activated Src
- tyrosine phosphorylation of PYK2 ([2]; LPA 2.5 mM or bradykinin 1 mM, 3 min): rapid tyrosine phosphorylation of PYK2
- increase in the phosphorylation state of PYK2 relative to unstimulated cells ([2]; LPA 2.5 mM, bradykinin 1 mM 3 min, PMA 1 mM 10 min): 4 fold
- activation of EGF receptor [3]: unable to detect
- increase in Src kinase activity [4]: approximately three to four
